Measurements published in BindingDB's records for doi:10.1016/j.bmcl.2003.11.078 (Virginia Commonwealth University, 2004).

Experiment: Binding affinity at imidazoline receptor I-1 of rat.

Compound `Brc1cccc2c3c([nH]c12)CNCC3` [8-Bromo-2,3,4,9-tetrahydro-1H-beta-carboline] has a Ki of 3.74 µM.
